According to PubChem BioAssay AID256 (DTP/NCI, 2004):
“And” between values parts separate entries of the source, which are not always exact repeats. Equal entries are not always repeated. Inconclusive results and toxic doses are left out. The calls were made as follows: active = survival T/C of 150% or more; inactive = T/C below 125% in these data.

Test system: CD2F1 mice, L1210 leukemia ip, survival T/C
Assay: NCI In Vivo Anticancer Drug Screen. Data for tumor model L1210 Leukemia (intraperitoneal) in CD2F1 (CDF1) mice
Details: higher = longer survival
Method in brief: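 Activity against a transplanted murine tumor was judged by comparing the compound group with a vehicle group. The outcome in the treated animals was divided by that in the controls.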

[1] = endpoint: mean survival time, dose: 100.0 mg/kg/injection, schedule: Q04DX003 (ip), vehicle: saline with Tween-80
[2] = endpoint: mean survival time, dose: 200.0 mg/kg/injection, schedule: Q04DX003 (ip), vehicle: saline with Tween-80
[3] = endpoint: mean survival time, dose: 400.0 mg/kg/injection, schedule: Q04DX003 (ip), vehicle: saline with Tween-80
[4] = endpoint: mean survival time, dose: 100.0 mg/kg/injection, schedule: Q04DX002 (ip), vehicle: saline with Tween-80
[5] = endpoint: mean survival time, dose: 200.0 mg/kg/injection, schedule: Q04DX002 (ip), vehicle: saline with Tween-80
[6] = endpoint: mean survival time, dose: 400.0 mg/kg/injection, schedule: Q04DX002 (ip), vehicle: saline with Tween-80
[7] = endpoint: mean survival time, dose: 50.0 mg/kg/injection, schedule: Q01DX009 (ip), vehicle: saline with Tween-80
[8] = endpoint: mean survival time, dose: 100.0 mg/kg/injection, schedule: Q01DX001 (ip), vehicle: saline with Tween-80
[9] = endpoint: mean survival time, dose: 200.0 mg/kg/injection, schedule: Q01DX001 (ip), vehicle: saline with Tween-80
[10] = endpoint: mean survival time, dose: 400.0 mg/kg/injection, schedule: Q01DX001 (ip), vehicle: saline with Tween-80
[11] = endpoint: mean survival time, dose: 100.0 mg/kg/injection, schedule: Q01DX001 (ip), vehicle: saline
[12] = endpoint: mean survival time, dose: 200.0 mg/kg/injection, schedule: Q01DX001 (ip), vehicle: saline
[13] = endpoint: mean survival time, dose: 400.0 mg/kg/injection, schedule: Q01DX001 (ip), vehicle: saline
[14] = endpoint: mean survival time, dose: 100.0 mg/kg/injection, schedule: Q01DX009 (ip), vehicle: saline with Tween-80
[15] = endpoint: mean survival time, dose: 200.0 mg/kg/injection, schedule: Q01DX009 (ip), vehicle: saline with Tween-80
[16] = endpoint: mean survival time, dose: 400.0 mg/kg/injection, schedule: Q01DX009 (ip), vehicle: saline with Tween-80
[17] = endpoint: mean survival time, dose: 25.0 mg/kg/injection, schedule: Q01DX009 (ip), vehicle: saline with Tween-80

Measured: T/C

Cc1ccc(C)c(NC(=O)c2ccc(Cl)cc2Cl)c1
inactive: [1] 98 % of control | [2] 98 % of control | [3] 96 % of control

O=C(O)c1cccc2c1oc1ccccc12
inactive: [4] 94 % of control | [5] 94 % of control | [6] 102 % of control

C/C=C(/C)C(=O)O[C@H]1CC[C@@]2(C)[C@@H]3CC[C@H]4[C@]5(O)C[C@H](O)[C@@]6(O)[C@@H](CN7C[C@@H](C)CC[C@H]7[C@@]6(C)O)[C@]5(O)C[C@@]42O[C@@]13O
inactive: endpoint: mean survival time, dose: 0.5 mg/kg/injection, schedule: Q01DX009 (ip), vehicle: saline with Tween-80 101 % of control | endpoint: mean survival time, dose: 1.0 mg/kg/injection, schedule: Q01DX009 (ip), vehicle: saline with Tween-80 101 % of control | endpoint: mean survival time, dose: 2.0 mg/kg/injection, schedule: Q01DX009 (ip), vehicle: saline with Tween-80 101 % of control

CC(C(O)c1ccc(Br)cc1)C(O)(C(F)(F)F)C(F)(F)F (stereo unspecified)
inactive: endpoint: mean survival time, dose: 100.0 mg/kg/injection, schedule: Q04DX003 (ip), vehicle: other 113 % of control | endpoint: mean survival time, dose: 200.0 mg/kg/injection, schedule: Q04DX003 (ip), vehicle: other 107 % of control | endpoint: mean survival time, dose: 400.0 mg/kg/injection, schedule: Q04DX003 (ip), vehicle: other 100 % of control

O=C(Oc1ccn(C2OC(CO)C(O)C2O)c(=O)c1)C12CC3CC(CC(C3)C1)C2 (stereo unspecified)
active: endpoint: median survival time, dose: 20.0 mg/kg/injection, schedule: Q01DX009 (ip), vehicle: saline + Tween-80 + alcohol 153 % of control | endpoint: median survival time, dose: 30.0 mg/kg/injection, schedule: Q01DX009 (ip), vehicle: saline + Tween-80 + alcohol 170 % of control | endpoint: median survival time, dose: 45.0 mg/kg/injection, schedule: Q01DX009 (ip), vehicle: saline + Tween-80 + alcohol 158 % of control

COc1ccccc1OC(=O)CCl
inactive: [1] 111 % of control | [2] 101 % of control | [3] 88 % of control

COc1cc(C=O)ccc1OC(=O)Nc1cc([N+](=O)[O-])ccc1Cl
inactive: [7] 98 % of control and 102 % of control | [8] 93 % of control | [4] 92 % of control and 102 % of control | [1] 93 % of control | [9] 108 % of control | [5] 91 % of control and 92 % of control | [2] 107 % of control | [10] 96 % of control | [6] 88 % of control and 96 % of control | [3] 100 % of control

CS(=O)(=O)c1ccnc2ccccc12
inactive: endpoint: mean survival time, dose: 100.0 mg/kg/injection, schedule: Q04DX003 (ip), vehicle: saline 98 % of control | endpoint: mean survival time, dose: 200.0 mg/kg/injection, schedule: Q04DX003 (ip), vehicle: saline 92 % of control | endpoint: mean survival time, dose: 400.0 mg/kg/injection, schedule: Q04DX003 (ip), vehicle: saline 95 % of control

Cc1cc2oc(=O)cc(N3CCOCC3)c2c(=O)o1
inactive: [1] 110 % of control | [2] 109 % of control

NOCc1nnc(Nc2ccccc2)s1
inactive: [11] 100 % of control | [12] 97 % of control | [13] 96 % of control

NC(=S)N/N=C/C(=O)c1ccc(Br)cc1
inactive: [11] 102 % of control | [12] 100 % of control

COC(=O)CC(CC(=O)OC)N1CC=CC1
inactive: [11] 100 % of control | [12] 98 % of control | [13] 108 % of control

C/C=C(\C)C1(CCC)C(=O)NC(=S)NC1=O
inactive: endpoint: mean survival time, dose: 75.0 mg/kg/injection, schedule: Q01DX001 (ip), vehicle: other 106 % of control | endpoint: mean survival time, dose: 150.0 mg/kg/injection, schedule: Q01DX001 (ip), vehicle: other 116 % of control

CCOn1nc(-c2cccc3ccccc23)oc1=O
inactive: [8] 91 % of control | [9] 95 % of control | [10] 95 % of control

C=CCCCCCCCCCCC(=O)OC
inactive: [14] 106 % of control | [1] 93 % of control | [15] 106 % of control | [2] 94 % of control | [16] 101 % of control

OC1CCCCC(O)CCCC1 (stereo unspecified)
inactive: [8] 110 % of control | [4] 95 % of control | [9] 116 % of control | [5] 98 % of control | [10] 118 % of control | [6] 101 % of control

O=S1(=O)OCCC1C(O)(c1ccccc1)c1ccccc1 (stereo unspecified)
inactive: endpoint: mean survival time, dose: 75.0 mg/kg/injection, schedule: Q01DX009 (ip), vehicle: saline 97 % of control | endpoint: mean survival time, dose: 75.0 mg/kg/injection, schedule: Q04DX003 (ip), vehicle: saline 100 % of control | endpoint: mean survival time, dose: 150.0 mg/kg/injection, schedule: Q01DX009 (ip), vehicle: saline 103 % of control | endpoint: mean survival time, dose: 150.0 mg/kg/injection, schedule: Q04DX003 (ip), vehicle: saline 97 % of control | endpoint: mean survival time, dose: 300.0 mg/kg/injection, schedule: Q01DX009 (ip), vehicle: saline 100 % of control | endpoint: mean survival time, dose: 300.0 mg/kg/injection, schedule: Q04DX003 (ip), vehicle: saline 97 % of control

C[n+]1ccccc1CCC(=O)Nc1ccccc1
inactive: [17] 103 % of control | [7] 95 % of control | [14] 88 % of control

Cc1cccc(C)c1NC(=S)NNC(=O)c1ccncc1
inactive: [17] 101 % of control | [7] 97 % of control | [14] 92 % of control

O=C(NC(O)C(Cl)(Cl)Cl)c1ccccc1 (stereo unspecified)
inactive: [14] 94 % of control | [1] 107 % of control | [15] 89 % of control | [2] 107 % of control | [16] 91 % of control | [3] 107 % of control

O=C1CN(c2ccc3ccccc3c2)NO1
inactive: [1] 93 % of control | [2] 93 % of control

CCN(C(=O)Nc1ccc(OC)cc1)c1ccccc1
inactive: [1] 98 % of control | [2] 95 % of control

NC(=O)c1ccc(Cl)c(Cl)c1
inactive: [14] 103 % of control | [15] 103 % of control

CCN(CC)CCOC(=O)Cc1cccc2c(=O)cc(-c3ccccc3)oc12
inactive: endpoint: mean survival time, dose: 12.5 mg/kg/injection, schedule: Q01DX009 (ip), vehicle: Klucel (hydroxypropylcellulose) (HPC) 95 % of control | endpoint: mean survival time, dose: 25.0 mg/kg/injection, schedule: Q01DX009 (ip), vehicle: Klucel (hydroxypropylcellulose) (HPC) 95 % of control | endpoint: mean survival time, dose: 25.0 mg/kg/injection, schedule: Q01DX009 (ip), vehicle: saline 95 % of control | endpoint: mean survival time, dose: 50.0 mg/kg/injection, schedule: Q01DX009 (ip), vehicle: Klucel (hydroxypropylcellulose) (HPC) 92 % of control | endpoint: mean survival time, dose: 50.0 mg/kg/injection, schedule: Q01DX009 (ip), vehicle: saline 111 % of control | endpoint: mean survival time, dose: 100.0 mg/kg/injection, schedule: Q01DX009 (ip), vehicle: Klucel (hydroxypropylcellulose) (HPC) 89 % of control | endpoint: mean survival time, dose: 100.0 mg/kg/injection, schedule: Q01DX009 (ip), vehicle: saline 96 % of control | endpoint: mean survival time, dose: 200.0 mg/kg/injection, schedule: Q01DX009 (ip), vehicle: Klucel (hydroxypropylcellulose) (HPC) 87 % of control | endpoint: mean survival time, dose: 200.0 mg/kg/injection, schedule: Q01DX009 (ip), vehicle: saline 111 % of control | endpoint: mean survival time, dose: 400.0 mg/kg/injection, schedule: Q01DX009 (ip), vehicle: Klucel (hydroxypropylcellulose) (HPC) 93 % of control

c1ccc2c3c([nH]c2c1)CCCCC3
inactive: [1] 92 % of control | [2] 95 % of control | [3] 94 % of control

O=c1[nH]ncc2c(C3OC(CO)C(O)C3O)cnn12 (stereo unspecified)
inactive: endpoint: median survival time, dose: 4.75 mg/kg/injection, schedule: Q01DX005 (ip), vehicle: distilled water + Tween-80 109 % of control | endpoint: median survival time, dose: 9.5 mg/kg/injection, schedule: Q01DX005 (ip), vehicle: distilled water + Tween-80 100 % of control | endpoint: median survival time, dose: 19.0 mg/kg/injection, schedule: Q01DX005 (ip), vehicle: distilled water + Tween-80 106 % of control | endpoint: median survival time, dose: 38.0 mg/kg/injection, schedule: Q01DX005 (ip), vehicle: distilled water + Tween-80 102 % of control | endpoint: median survival time, dose: 76.0 mg/kg/injection, schedule: Q01DX005 (ip), vehicle: distilled water + Tween-80 98 % of control

Nc1ccc2c(c1)C=CCS2
inactive: [14] 102 % of control | [1] 104 % of control | [15] 98 % of control | [2] 98 % of control | [16] 90 % of control | [3] 104 % of control

C1CC2C3CCC(C3)C2C1 (stereo unspecified)
inactive: [14] 103 % of control | [15] 102 % of control | [16] 96 % of control

Cc1ccccc1NCC#N
inactive: [17] 101 % of control | [7] 97 % of control | [1] 93 % of control

CCOC(=O)c1c(C)[nH]c(C)cc1=O
inactive: endpoint: mean survival time, dose: 100.0 mg/kg/injection, schedule: Q04DX002 (ip), vehicle: saline 103 % of control | endpoint: mean survival time, dose: 200.0 mg/kg/injection, schedule: Q04DX002 (ip), vehicle: saline 108 % of control

COc1ccc(OC)c(C(O)CCc2cccc(N)c2)c1 (stereo unspecified)
inactive: endpoint: mean survival time, dose: 100.0 mg/kg/injection, schedule: Q04DX002 (ip), vehicle: Klucel (hydroxypropylcellulose) (HPC) 93 % of control | endpoint: mean survival time, dose: 200.0 mg/kg/injection, schedule: Q04DX002 (ip), vehicle: Klucel (hydroxypropylcellulose) (HPC) 93 % of control | endpoint: mean survival time, dose: 400.0 mg/kg/injection, schedule: Q04DX002 (ip), vehicle: Klucel (hydroxypropylcellulose) (HPC) 97 % of control
